One data set relates to liver steatosis. In words: Liver steatosis on treatment of male rats. The format is in vivo, rat. Particulars: up to six weeks, male rats (Fischer F344, Sprague Dawley, Wistar), 2×25 mg/kg i.p/day, in water/NaHCO3.
For the next data set, the system named is hydroxyproline formation. As to the kind of experiment: Carbon tetrachloride-induced liver fibrosis model in rats, inhibition of hydroxyproline formation. In kind it is in vivo, rat. Particulars: two weeks with CCl4. As for the experimental part: The antifibrotic action was determined in the model of carbon tetrachloride-induced liver fibrosis. For this, rats were treated twice weekly with CCl4 (1 ml/kg) dissolved in olive oil. The test substance was administered daily, if appropriate even twice daily, orally or intraperitoneally dissolved in a suitable compatible solvent. The extent of the liver fibrosis was determined histologically and the proportion of collagen in the liver was analyzed by hydroxyproline determination as described in Kivirikko et al., ANAL. BIOCHEM. […] The fibrogenesis activity was determined by radioimmunological determination of collagen fragments and procollagen peptides in the serum.
The measurement of the inhibition of hydroxyproline formation by the test substances was based on this level.
Here the experimental animals were treated for two weeks only with carbon tetrachloride, then for the next two weeks with carbon tetrachloride and test substance. The test substances were administered intraperitoneally twice per day in the total amount indicated below in Table II,

Data set [1] concerns the target T1, prolyl-4-hydroxylase (Gallus gallus, UniProt P16924).
T1 sequence (P16924 1-516): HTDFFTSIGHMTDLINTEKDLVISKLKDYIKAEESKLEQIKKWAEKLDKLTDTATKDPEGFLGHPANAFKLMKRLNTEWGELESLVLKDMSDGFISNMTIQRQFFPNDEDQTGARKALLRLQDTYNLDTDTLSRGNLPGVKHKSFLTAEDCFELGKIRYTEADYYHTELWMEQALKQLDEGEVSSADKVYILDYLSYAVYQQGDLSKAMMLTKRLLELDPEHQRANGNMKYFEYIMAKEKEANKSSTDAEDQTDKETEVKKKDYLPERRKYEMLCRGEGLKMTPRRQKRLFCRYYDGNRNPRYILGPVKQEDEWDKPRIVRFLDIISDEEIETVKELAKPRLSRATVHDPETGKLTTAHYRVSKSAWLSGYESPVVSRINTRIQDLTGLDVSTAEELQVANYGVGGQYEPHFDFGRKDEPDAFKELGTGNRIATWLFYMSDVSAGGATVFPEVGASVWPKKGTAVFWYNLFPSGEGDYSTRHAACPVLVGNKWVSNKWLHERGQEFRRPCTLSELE
T1 sequence (P09102 23-515 partner): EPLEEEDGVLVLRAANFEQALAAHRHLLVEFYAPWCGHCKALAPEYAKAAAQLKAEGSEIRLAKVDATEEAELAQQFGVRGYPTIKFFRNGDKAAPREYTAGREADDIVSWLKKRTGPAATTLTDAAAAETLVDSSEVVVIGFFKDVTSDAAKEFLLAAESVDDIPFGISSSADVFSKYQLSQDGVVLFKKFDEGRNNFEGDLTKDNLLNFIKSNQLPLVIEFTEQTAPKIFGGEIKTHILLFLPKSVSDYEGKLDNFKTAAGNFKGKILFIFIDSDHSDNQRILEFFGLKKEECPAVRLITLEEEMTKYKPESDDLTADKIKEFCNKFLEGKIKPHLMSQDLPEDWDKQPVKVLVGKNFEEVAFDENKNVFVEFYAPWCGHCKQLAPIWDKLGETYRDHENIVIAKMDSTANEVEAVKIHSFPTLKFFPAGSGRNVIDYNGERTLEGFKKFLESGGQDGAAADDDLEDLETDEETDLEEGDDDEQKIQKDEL
In words: Inhibition of prolyl-4-hydroxylase (Table I). In kind it is biochemical. As for the experimental part: The inhibition of this enzyme was determined as described by Kaule and Gunzler, ANAL. BIOCHEM.

Data set [2] concerns the target T1, prolyl-4-hydroxylase. As to the kind of experiment: Combined liver perfusion/enzyme assay (prolyl-4-hydroxylase inhibition after rat liver perfusion). Particulars: after 120 min rat liver perfusion; 100 or 50 μg/ml added at t=0 and 60 min. The format is biochemical, chicken. More on the design: The enzyme is purified from 14 day-old chicken embryos; from tissue; host or cells: 14-day-old chicken embryos. As for the experimental part: In order to investigate the inhibitory action of such active proinhibitors, the compounds were employed in perfusion experiments on isolated rat liver. The inhibitory action was then measured in a prolyl-4-hydroxylase assay.
Unfasted male Wistar rats of 200-300 g body weight (Hoe:WISKf(SPF71)) were anesthetized with pentobarbital (5 mg/100 g of body weight i.p.). After cannulation of the portal vein, the liver was washed with 100 ml of heparinized saline solution (5 lU/ml) of 37° C. for 3 min. The fluid left the liver by the incised vena cava. The organ was then removed, attached to the perfusion apparatus and perfused at a flow rate of 30 ml/min with 100 ml of medium for 2 hours under recirculating conditions. Krebs-Ringer buffer containing bovine erythrocytes was used for the perfusion. For this, bovine blood was mixed 1:1 with a citrate solution in the slaughterhouse immediately after removal. This mixture was centrifuged at 6000 rpm for 10 min and the supernatant was removed. This process was repeated once using saline solution and twice using Krebs-Ringer buffer. The final perfusion solution contained 33.3% of the erythrocyte sediment and 66.7% of Krebs-Ringer buffer (Schimassek, H. BIOCHEM. Z. 336 (1963) 460-467).
Perfusion apparatus (Ryoo and Tarver, H.P.S.E.B.M. 128 (1968) 760-72): The central element of the apparatus is a thermostated cylinder having a removable plate for the storage of the organ. The outlet tube is extended and its lower end is attached to a peristaltic pump. Before the return of the perfusate into the organ bath, it is passed through a glass spiral, which serves as a heat exchanger, which keeps the temperature constant at 37° C. At the bottom of the cylinder, the perfusate is aerated with 70 ml of a CO2 /O2 mixture (5:95%) per minute. In order to avoid foam formation, 14 μl of 0.1% strength Genapol® PF-10 solution are added per ml of perfusion solution. Samples for analysis are removed from the perfusate at a position before entry into the perfused organ.
The test substances were added to the perfusion solution at time t=0 and 60 min in concentrations of 100 or 50 μg/ml in each case. After a perfusion time of 120 min, a sample of the perfusion solution was removed for analysis.
The inhibitory activity of the metabolites which are formed in the liver during the two-hour perfusion was determined in an in vitro prolyl-4-hydroxylase assay. The enzyme is purified from 14 day-old chicken embryos as described in the literature (Tuderman et al., EUR.J.BIOCHEM. 52 (1975) 9-16; Kedersha and Berg, COLLAGEN REL. RES. 1 (1981) 345-53). The enzyme test is carried out according to Kaule and Gunzler, ANAL. BIOCHEM. 184 (1990) 291-97). Dose-response curves were obtained by means of dilution series, starting from the undiluted perfusion solution.

For the next data set, the system named is collagen biosynthesis. Particulars: Franklin et al.; cited from earlier work.
In a further data set the test system is liver. Particulars: rats; Franklin 1997; cited from earlier work.
Data set [3] has as its system prolyl hydroxylase. Particulars: Tschank et al.; cited from earlier work.
Data set [4] concerns prolyl hydroxylase. Particulars: Majamaa et al.; cited from earlier work.
Setting [5] is: 40 mg/kg (total), intraperitoneal twice per day.

The values below come from patent publication US6093730A, “Substituted isoquinoline-3-carboxamides, their preparation and their use as pharmaceuticals” (Hoechst Marion Roussel Deutschland GmbH, priority 1997, dated 2000).

As a reminder, the pIC50 is −log10 of the IC50, conventionally taken in molar units.

pIC50: −log10 of the molar value.

In the case of `O=C(O)CNC(=O)c1nc(Cl)c2ccccc2c1O` [Example 9, N-((1-Chloro-4-hydroxyisoquinolin-3-yl)carbonyl)glycine], the liver steatosis result with liver steatosis is recorded as “It was not possible to demonstrate any liver steatosis”. For the same compound, the “Change in hydroxyproline formation” value with hydroxyproline formation (20 mg/kg (total), intraperitoneal twice per day) is on record as -67%; in the data set on hydroxyproline formation (setting [5]) it was -65%; in the data set on hydroxyproline formation (100 mg/kg (total), intraperitoneal twice per day), -58%; in the data set with hydroxyproline formation (100 mg/kg, oral administration), -71%. At prolyl-4-hydroxylase [1], this compound showed a pIC50 of 5.64.
Regarding `CC(C)Oc1ccc2c(O)c(C(=O)NCCO)nc(Cl)c2c1` [Example 19, 1-Chloro-4-hydroxy-7-(2-propyloxy)isoquinoline-3-carboxylic acid N-(2-hydroxyethyl)amide], in the data set on hydroxyproline formation (setting [5]), the “Change in hydroxyproline formation” value is -39%. The pIC50 on prolyl-4-hydroxylase [2] is 4.98.
On to `CC(C)Oc1ccc2c(Cl)nc(C(=O)NCCO)c(O)c2c1` [Example 20, 1-Chloro-4-hydroxy-6-(2-propyloxy)isoquinoline-3-carboxylic acid N-(2-hydroxyethyl)amide], for which the pIC50 at prolyl-4-hydroxylase [2] was 4.78.
As for `COc1ccc2c(O)c(C(=O)NCCO)nc(Cl)c2c1` [Example 21, 1-Chloro-4-hydroxy-7-methoxyisoquinoline-3-carboxylic acid N-(2-hydroxyethyl)amide], at prolyl-4-hydroxylase [2], the pIC50 is 5.12.
On to `COc1ccc2c(Cl)nc(C(=O)NCCO)c(O)c2c1` [Example 22, 1-Chloro-4-hydroxy-6-methoxyisoquinoline-3-carboxylic acid N-(2-hydroxyethyl)amide], for which the pIC50 at prolyl-4-hydroxylase [2] is 5.19.
`CCCCOc1ccc2c(O)c(C(=O)NCCO)nc(Cl)c2c1` [Example 23, 7-(1-Butyloxy)-1-chloro-4-hydroxyisoquinoline-3-carboxylic acid N-(2-hydroxyethyl)amide]: the pIC50 at prolyl-4-hydroxylase [2] was 4.66.
Consider `O=C(O)CNC(=O)c1ncc2ccccc2c1O` [N-((4-Hydroxyisoquinolin-3-yl)carbonyl)glycine], for which the “in-vivo activity on collagen biosynthesis” value with collagen biosynthesis was “poor”.
With `O=C(O)CNC(=O)c1ncc2cc(Br)ccc2c1O` [N-((7-bromo-4-hydroxy-isoquinolin-3-yl)carbonyl)glycine], the “in-vivo activity on collagen biosynthesis” value in the data set with collagen biosynthesis is “in-vivo inhibition of collagen biosynthesis”. For the same compound, in the data set on liver, the “toxic action on the liver” value is given as “toxic action on the liver (steatosis)”.
With `O=C(O)c1ccnc(C(=O)O)c1` [pyridine-2,4-dicarboxylic acid], the “activity as inhibitors in cell culture” value with prolyl hydroxylase [3] was “only active as inhibitors in very high concentrations”. Further, in the data set on prolyl hydroxylase [4], the “inhibition of prolyl hydroxylase” value is “effectively inhibited”.
Consider `O=C(O)c1ccc(C(=O)O)nc1` [pyridine-2,5-dicarboxylic acid], for which the “activity as inhibitors in cell culture” value with prolyl hydroxylase [3] is “only active as inhibitors in very high concentrations”. Moreover, the “inhibition of prolyl hydroxylase” value in the data set on prolyl hydroxylase [4] is recorded as “effectively inhibited”.
